Experimental data published in patent US10232043B2, “Photoactivated molecules for light-induced modulation of the activity of electrically excitable cells and methods of using the same” (UNIVERSITY OF SOUTHERN CALIFORNIA, priority 2015, dated 2019).
“Also recorded” adds a separate entry of the source.

What was measured:
HEK293T cells = assay: Whole cell patch clamp, current-clamp membrane potential under light; assay type: cell-based, human
Procedure: Membrane potential was monitored using whole cell patch clamp in current-clamp mode. Cultured cells (INS and HEK293) were plated on a glass-bottomed culture dishes 1-3 days prior to recording. Cells were incubated in standard extracellular solution with or without 10 μM RubpyC17 compound for approximately 1.5-2 minutes, then washed and incubated with standard extracellular solution without additional supplementation, or with 2-5 mM ascorbate, 100 μM sodium ferrocyanide, or 100-200 μM potassium ferricyanide, as indicated. The chamber was transferred to the microscope stage. Extracellular solution consisted of 140 mM NaCl, 2.8 mM KCl, 10 mM HEPES, 1 mM MgCl2, 2 mM CaCl2, 10 mM glucose, pH adjusted to 7.3, and osmolarity adjusted to 300-310. Conventional whole-cell patch clamp recordings were performed with an EPC-9 amplifier and Pulse software (HEKA Electronics). Pipette electrodes of 1.8-3.5 Mohm were fire polished before use. Intracellular solution consisted of: 145 mM KCl, 10 mM NaCl, 1 mM MgCl2, 1 mM EGTA, 2 mM ATP, 0.3 mM GTP and 10 mM HEPES, pH adjusted to 7.3 and osmolarity adjusted to 290-300 mOsm. To monitor changes in membrane voltage/potential, cells were patch clamped in current-clamp mode. Access resistances were in the range of 3-8 Mohm. Using Pulse, membrane potentials were recorded before, during and after illumination by the argon ion laser at 488 nm with an irradiance value of 0.458 mE s^−1 m^−2 or by a xenon lamp source through a 470/40 nm bandpass excitation filter with an irradiance value of 0.480 mE s^−1 m^−2. […]
Initial attempts were tied to INS and HEK cells, both cells that are not excitable under normal conditions (INS cells were maintained in low glucose <3 mM to prevent action potentials). […] To monitor the plasma membrane potential, the cells were patch-clamped in whole-cell configuration in current-clamp mode and membrane voltages were recorded while illuminating the cell at 488 nm (0.46-0.48 mE s^−1 m^−2), though other wavelengths are useful, depending on the embodiment. […]

[1] = test system: endogenous ion channels of chromaffin cells; assay: Voltage-clamp current-voltage relationship and steady-state activation; assay type: cell-based, mouse; details: before and during light illumination
Text: FIGS. 21A-21H depict data from various experiments related to characteristics of RubpyC17-loaded cells. […] Inset images shown to the right of trace confirmed proper integration of RubpyC17 in patched cells. FIGS. 21C-21E show the light-induced action potential firing in chromaffin cells was not due to biophysical changes in voltage-gated ion channels as there were no significant changes in current-voltage relationships (21C-21D) nor in steady-state activation curve (21E) in RubpyC17-loaded chromaffin cells before (open circle) or during (open circle) light illumination. […] Peak inward currents from each stimulation jump were plotted against corresponding stimulating voltages (n=6). […] Data from representative cell is shown (n=5). […] Currents resulting from capacitor-like behavior of chromaffin cell membranes during hyperpolarizing jumps to −85 mV from a resting membrane potential of −80 mV were recorded 5 min following giga-seal formation for amphoterecin B (bottom trace) or 10 min following giga-seal formation for RubpyC17 (top trace).
To examine whether light-activated RubpyC17 can directly interact and open or block endogenous ion channels, HEK293T cells were preincubated with RubpyC17, and patch-clamped in a voltage-clamp configuration. […]

RCS rats [2] = assay: Extracellular recording from superior colliculus after intravitreal injection; assay type: in vivo, rat
Text: FIGS. 27C-27F depict data related to administration of Rubpy-C17. White light was used for illumination in panels A, C, and D, while blue light (450 nm) was used in panels B, E, and F.
(§1) This finding was reproduced in 3 of 3 RCS rats injected with Rubpy-C17, and in 2 of 2 control (sham injection) RCS rats.

RCS rats [3] = assay: Pupillary light response after eye injection; assay type: in vivo, rat
Text: FIG. 28 illustrates the pupillary light response in RCS rats.
as §1

RCS rats [4] = assay: Histology of the retina after injection; assay type: in vivo, rat; details: 3 days after injection, preliminary
Text: as §1

## CCCCCCCCCCCCCCCCCc1ccnc(-c2cc(C)ccn2)c1.F[P-](F)(F)(F)(F)F.F[P-](F)(F)(F)(F)F.[Ru+2].c1ccc(-c2ccccn2)nc1.c1ccc(-c2ccccn2)nc1 [RubpyC17, [Ru(bpy)2(bpy-C17)](PF6)2]
HEK293T cells; 100 uM ferricyanide in extracellular solution
  light-induced hyperpolarization: 20.9 ± 4.9 mV
HEK293T cells; HEK293T, 0.1 mM ferrocyanide
  light-induced depolarization with ferrocyanide as reductant: light-induced depolarization was also observed
HEK293T cells; HEK293 cells, presence of ascorbate
  light-induced depolarization: 14.6 ± 2.4 mV
[1]
  biophysical properties of endogenous ion channels: does not alter the biophysical properties of endogenous ion channels
RCS rats [2]; RCS rats injected with Rubpy-C17
  rats in which the finding was reproduced: 3 of 3
RCS rats [2]; eye injection, RCS rats
  time after injection with light-induced SC electrical responses: up to 3 days
RCS rats [2]; intravitreal, final concentration 100 μM, 30 minutes later, blind RCS rats
  light-elicited electrical activity in superior colliculus field recording: elicited reproducible and stereotypical electrical activity
RCS rats [3]; RCS rat, not in non-injected eye
  pupillary light reflex in injected eye: vigorous pupillary light reflex was observed; also recorded: pupil constricts
RCS rats [3]; injected eye
  time of pupillary light reflex: < 3 s
RCS rats [4]
  retinal histology / pathology: no evidence of retinal cell death or white blood cell infiltrates; also recorded: absence of obvious signs of deleterious effects
